For series [1], the system named is human islets. Kind of series: Glucose stimulated insulin release (GSIR). Format: cell-based. To be noted: 100 uM, glucose series. The method, then:
Living islets were isolated from the pancreas of a consenting organ donor via enzymatic digestion and isopycnic density gradient purification as previously described (Balamurugan, A N., et al., (2014) The Islets of Langerhans, 2nd Edition, 1-25). This isolation was performed as a standard procedure by an experienced team at the Schulze Diabetes Institute of the University of Minnesota under GMP conditions. A portion of the total number of isolated islets were granted for these experiments after quality control testing and quantification. Islets were maintained in culture in supplemented Prodo media with a 5.5 mM glucose concentration in a T-flask at 37° C., 5% CO2. […]
After washing to remove culture media, approximate aliquots of 30 islet equivalents (IEQ, islet numbers normalized to an average size of 150 microns) were added to cell strainers immersed in 1.0 mL of 0-glucose solution. […] All well contents, both time 0 and post-stimulation samples, were stored at −80° C. until they could be assessed for insulin content via sandwich ELISA from a standard commercial mouse insulin ELISA kit. Insulin content, post-stimulation concentration minus the time 0 concentration, was normalized to the actual IEQ of each well, which was determined by Pico-green DNA assessment (Papas, K. K., et al., (2007), Am J Transplant 7, 707-13) of cell strainer contents recovered at the end of the final incubation. […]

In series [2] the test system is human islets. Kind of series: Human islet viability (acridine orange / propidium iodide staining). To be noted: for islet viability: 100 uM. Format: cell-based. On the procedure:
(§1) Living islets were isolated from the pancreas of a consenting organ donor via enzymatic digestion and isopycnic density gradient purification as previously described (Balamurugan, A N., et al., (2014) The Islets of Langerhans, 2nd Edition, 1-25). This isolation was performed as a standard procedure by an experienced team at the Schulze Diabetes Institute of the University of Minnesota under GMP conditions. A portion of the total number of isolated islets were granted for these experiments after quality control testing and quantification. Islets were maintained in culture in supplemented Prodo media with a 5.5 mM glucose concentration in a T-flask at 37° C., 5% CO2. Half-volume media changes were performed every 3′^d day.
After conditional incubations (described below), islets were placed in standard media for 2-8 hrs before viability assessment. The viability of islets was assessed by double staining an aliquot of ˜25 islets with acridine orange (stains living cells) and propidium iodide (stains necrotic or apoptotic cells) (Bank, H. L., (1988) In Vitro Cell Dev Biol 24, 266-73). Each islet in the sample was evaluated under a fluorescent microscope and assigned a value for the % of live cells present and those numbers averaged for that sample. 3× samples per condition were assayed each day for 3 consecutive days and on one day in a follow-up experiment 1 week later. Prior to staining, aliquots were incubated for 60 minutes (FIG. 12, n=2 days) or 90 minutes (FIG. 13, n=2 days) in each solution type used in the GSIR incubations in addition to 100 uM concentrations of D-serine, NMDA or D-serine+NMDA alone (i.e. in 0 glucose). […] On the 3rd day and in a subsequent follow-up experiment, islets were incubated for 90 minutes in the same solutions. In this case, viability was decreased only under those conditions with both the maximum glucose concentration (28 mM) and the addition of NMDA and/or D-serine with the most dramatic loss of viable islet cells (down to 81.1±1.1%) observed in the 28 mM glucose+100 uM NMDA+100 uM D-serine condition (FIG. 13).

Series [3] can be described thus: Plasma D-serine after acute i.p. administration (capillary electrophoresis). Type of series: in vivo, mice. To be noted: 2.7 g/kg i.p., 35 and 55 minutes after injection; ethanol 3 g/kg i.p. 15 min after D-serine. The method, then: The data from FIG. 3 serves as an example of a concentration reference value subject to the time frame and administration technique of the acute hypoglycemia experiments described in FIG. 1. A 20 uL blood sample was collected from the facial vein of mice prior to any treatment (time 0) and 20 and 40 minute intervals after an i.p. injection of ethanol (3 g/kg). A pre-treatment injection of saline (n=9) or D-serine (2.7 g/kg, i.p., n=9) was administered 15 minutes before ethanol such that the reported values also correspond to time 35 and 55 minutes after the pre-injection. These blood samples were assayed for D-serine using capillary electrophoresis, as described in the publication (Lockridge, 2012). Basal levels of plasma D-serine were ˜20 uM with post-injection values rising into the […].

Series [4] in a line: Core body temperature by rectal probe during chronic D-serine drinking. To be noted: throughout the chronic D-serine drinking experiment. Type of series: in vivo, mice. The method, then: (§2) Eight adult male mice of the C57 strain were tested in a chronic administration model. Mice were housed 2 per cage, with each cage outfitted with 2 special drinking tubes (50 mL conical+stopper with sipper tube) to minimize the impact of any problems with a single tube. Two cages of mice drank tap water and two cages of mice drank a D-serine solution (12.6 mg/ml in tap water), with solutions replaced every other day. Every other day, the food and drinking bottles were weighed to determine cage-wide consumptive behaviors and the mice were individually weighed. At specified intervals, mice were also tested for core body temperature by rectal probe and for 4-hours fasted blood glucose. All mice started with a week of water drinking. […] After one week, two cages (4 mice) were switched to D-serine solution. […] After this measure, all mice were again switched back to water. […] Both acute weight loss and increased drinking are prominent symptoms of the onset of diabetes.
The hypothalamus is known to regulate metabolism through its influence on circadian rhythm, hunger, thirst, body temperature and glucose utilization among others. […] Core body temperature, determined by rectal thermometer, was stable throughout the chronic D-serine drinking experiment (FIG. 8A) and between wildtype and DAO mutant mice (FIG. 8B).

Series [5] is described as follows: Plasma D-serine during chronic, sustained drinking (capillary electrophoresis). Type of series: in vivo, mice. To be noted: 12.6 mg/mL drinking solution. The source says:
The data from FIG. 4 were generated from an unpublished study of the impacts of D-serine on ethanol drinking. […] Blood was collected from the facial vein and assayed via capillary electrophoresis as described above after mice (n=2-4 per condition as shown in the x-axis) had been presented with a choice of water vs. D-serine (or ethanol) drinking solution for 2 weeks and then 2 weeks of exclusively drinking treated solution according to their indicated treatment category.

Series [6] relates to blood glucose. Put plainly: Acute D-serine injection, fasted blood glucose by glucometer. Format: in vivo, mice of the ddY strain. To be noted: 2.7 g/kg i.p., 6 h fasted. On the procedure: Mice were fasted for 4-6 hours. The tails were wiped with ethanol and allowed to dry. For a first time test, the tip of the tail was removed with a scissors. For subsequent tests, a needle was used to puncture the tail vein. The first drop of blood was wiped away and then the second drop was placed on a glucometer test strip. A second test was administered immediately and most scores were an average of the two readings. If there was more than a 100 unit discrepancy between the two readings, a third reading was taken and the reported value was an average of the three.
Four adult male mice of the ddY strain were fasted for 6 hours before testing. A blood glucose reading from each mouse was determined at the start (time 0). The mice were weighed and the average weight was used with an injection volume of 0.3 mL to calculate the concentration of D-serine to dissolve into saline. The dose, 2.7 g/kg, was picked based on previously published behavior studies in which the intraperitoneal dose was the most reliable in inducing a mouse behavior response during pre-pulse startle inhibition (Kanahara, N., et al., (2008), Psychopharmacology, 198, 363-374) and acute ethanol sedation (Lockridge, A., et al., (2012), Alcohol, 46:389-400). After time 0 testing, each mouse received either D-serine or saline (alternating by cage) at 5 minute intervals. Blood glucose readings were taken at 15, 30, 60 and 120 minutes after each mouse's initial injection. The data presented is the average blood glucose (mg/dL), determined by glucometer as previously described (FIG. 1). Each data point is the average of the two mice with the same treatment condition, while the standard error bars indicate the degree of individual variability between subjects. The saline injected control mice (black) maintained a steady glucose level (70-80% of baseline) throughout the testing period.

The test system of series [7] is human islets. Kind of series: Sustained high concentration D-serine on human islet survival (1 week culture). To be noted: 100 uM NMDA and 500 uM D-serine. Format: cell-based. The method, then: as §1
After conditional incubations (described below), islets were placed in standard media for 2-8 hrs before viability assessment. The viability of islets was assessed by double staining an aliquot of ˜25 islets with acridine orange (stains living cells) and propidium iodide (stains necrotic or apoptotic cells) (Bank, H. L., (1988) In Vitro Cell Dev Biol 24, 266-73). Each islet in the sample was evaluated under a fluorescent microscope and assigned a value for the % of live cells present and those numbers averaged for that sample. 3× samples per condition were assayed each day for 3 consecutive days and on one day in a follow-up experiment 1 week later. […]

The test system of series [8] is blood glucose. Kind of series: Chronic D-serine drinking, fasted blood glucose, body weight and consumption. Format: in vivo, mice of the C57 strain. The method, then:
as §2, with “Mice were fasted for 4-6 hours. The tails were wiped with ethanol and allowed to dry. For a first time test, the tip of the tail was removed with a scissors. For subsequent tests, a needle was used to puncture the tail vein. The first drop of blood was wiped away and then the second drop was placed on a glucometer test strip. A second test was administered immediately and most scores were an average of the two readings. If there was more than a 100 unit discrepancy between the two readings, a third reading was taken and the reported value was an average of the three. Eight” for “Eight”

Setting [9] is: 12.6 mg/ml in drinking water, first week of treatment.

As for `CN[C@H](CC(=O)O)C(=O)O` [NMDA, N-methyl-D-aspartate], the “effect on insulin secretion, supplement alone” value with human islets [1] is reported as “no effect on 2 out of 3 days tested”. This compound also came in with an islet viability with human islets [2] (60 minutes incubation, all GSIR solution types and 0 glucose) of roughly 100%. Also, the “islet viability (viable islet cells)” value in the series with human islets [2] (90 minutes incubation, 28 mM glucose, 100 uM supplement) is “decreased”.
For the compound `N[C@H](CO)C(=O)O` [D-serine], the “effect on insulin secretion, supplement alone” value in the series with human islets [1] was “no effect”. In the series on human islets [2] (human, 60 min), the islet viability is on record as roughly 100%. The “plasma D-serine, post-injection” value in series [3] was roughly 12 mM. The core body temperature result in series [4] is “stable”. Besides, the “plasma level relative to human patients undergoing D-serine oral therapy” value in series [5] (versus clinical trials (Emilov 2013)) is listed as 2-3 times higher. The concentration at 4 weeks in series [5] (mouse, plasma, oral, 2 weeks choice then 2 weeks exclusive drinking, read-out: basal D-serine plasma level) was 400 to 600 µM. Moreover, the blood sugar result in the series with blood glucose [6] (15 and 30 minutes after injection) was “stable”; in the series on blood glucose [8] (12.6 mg/ml in drinking water, 16 days of drinking, 4-hours fasted), 170 ± 9 mg/dL; with blood glucose [8] (12.6 mg/ml in drinking water, after 7 days of drinking, 4-hours fasted), 149 ± 12 mg/dL. The “blood sugar, % of baseline” value in the series on blood glucose [6] (60 minutes after injection) is given as 52 % of baseline; with blood glucose [6] (120 minutes after injection) it was 36 % of baseline. Besides, in the series with human islets [7], the “average viability, % viable cells per islet” value is reported as 84±2.4%. The “islets recovered, average pool IEQ” value with human islets [7] (Pico-green DNA assay) worked out at 1137±172 IEQ. Besides, the solution drinking entry in the series on blood glucose [8] (12.6 mg/ml in drinking water) is given as “increased”. Also, the body weight entry with blood glucose [8] (setting [9]) is given as “weight loss”. The eating entry with blood glucose [8] (setting [9]) is listed as “reduced eating”. In addition, the blood glucose result with blood glucose [8] (12.6 mg/ml in drinking water, two days after the switch, 4-hours fasted) is on record as “still at baseline levels”. The “blood glucose after switch back to water” value with blood glucose [8] (after a week of water drinking following 16 days of D-serine) is “recovered back to baseline glucose levels”.

Source of the values: US9468669B2, “Methods to treat dysregulated blood glucose disorders” (REGENTS OF THE UNIVERSITY OF MINNESOTA, priority 2013, dated 2016).
